Measurements as given in US8901091B2, “Method of treating herpes virus infection using macrocyclic lactone compound” (Galderma S.A., priority 2010, dated 2014).

Legend:
varicella zoster virus = test: Informal trials: topical ivermectin lotion in patients with herpes zoster (shingles); format: in vivo, human
From the text: For treating herpes zoster, preferably the surface of the affected area of the skin is gently scratched prior to rubbing the composition containing the macrocyclic lactone compound on the area. Gentle scratching abrades the stratumcorium, which allows better penetration of the macrocyclic lactone compound into the skin. The stratum corneum is the outermost layer of the epidermis, composed of large, polyhedral, plate-like envelopes filled with keratin, which is made up of dead cells that have migrated up from the stratum granulosum. As these dead cells slough off on the surface, they are continuously replaced by new cells from the stratum germinativum. Alternatively, the composition can be dispensed on the affected area, and then scratched into the area. Scratching with cleaned finger nails or a sterilized scraping tool, for example small sharp curette or a needle point, can be used.
(§1) The composition can be applied topically to the affected area one or more times a day, typically one to two times a day, when a herpes simplex episode occurs or during the course of shingles or chicken box. When the pain is severe, the composition can be applied more frequently to help alleviate the symptoms. Moreover, the composition can also be integrated into or applied on medical dressing, dermal patch, or lint free wipes, which can be applied to the affected area as needed, to provide a more extended exposure to the medication.
For herpes zoster, at the early onset the patient develops a patch of linear area of paresthesia, and hyperesthesia (burning, stinging, and pain). At this time, the composition containing ivermectin should be topically applied promptly and scratched into the skin. Concurrently, an oral antiviral medication can be used promptly.
(§2) Operating with informed consent of individuals, individuals were treated with the topical composition and the method of the present invention for treating herpes virus infection, more particularly herpes simplex and herpes zoster or shingles, as described in Examples 3 to 8.

herpes simplex virus [1] = test: Informal trials: topical ivermectin lotion in patients with herpes simplex; format: in vivo, human
From the text: The composition of the present invention described above is applied to the affected area of patients having herpes simplex, herpes zoster, or chicken-pox. Preferably, the lotion, cream, gel, or ointment can be applied on the affected area with gentle rubbing to help penetration of the macrocyclic lactone compound into the skin. Moreover, when lotion, cream, or hydrogel is used, preferably the affected area is dampened by water first, then a drop of lotion, cream, or hydrogel is rubbed on the affected area by finger(s). […] Moreover, if blisters are already formed at the affected area, at the time of applying the topical composition the blisters can be broken using a needle, then the composition is rubbed in the lesion.
as §1
The most impressive results are seen with early recognition and treatment. […] In medicine, a prodrome is an early symptom (or set of symptoms) that might indicate the start of a disease before specific symptoms occur. Prodromes may be non-specific symptoms or, in some instances, may clearly indicate a particular disease. In herpes simplex there is a prodrome consisting of a change in sensation, typically slight numbness or a faint tingling sensation with vague swelling or induration.
as §2

[2] = Side effects and tolerability observed in treated patients; format: in vivo, human; conditions: Example 5: person, high dose
Description: Operating with informed consent of individuals, individuals were treated with the topical composition and the method of the present invention for treating herpes virus infection, more particularly herpes simplex and herpes zoster or shingles, as described in Examples 3 to 8. In the above described informal trials, no adverse side effects or contra-indications were observed among the patients. The patients had no complaints of skin irritation, sensitivity or discomfort originating from the treatment.

herpes simplex virus [3] = conditions: cited from earlier work
[4] = topical composition, ivermectin concentration as low as 0.075%

In the case of `CC(=O)OCC(CCn1cnc2cnc(N)nc21)COC(C)=O` [Famvir®, famciclovir], the “Response of severe pain with burning and tingling to prior therapy” value (varicella zoster virus; Example 6: person, high dose) was “had not responded”.
With `CC(C)[C@H](N)C(=O)OCCOCn1cnc2c(=O)[nH]c(N)nc21` [Valtrex®, valacyclovir] the “Satisfaction with prior therapy” value (herpes simplex virus [1]; Example 5: person, high dose) was “without total satisfaction” and the “Side effects of prior therapy” value [2] was “cardiac irregularities, especially bigeminy and trigeminy”.
In the case of `Nc1nc2c(ncn2COCCO)c(=O)[nH]1` [Zovirax®, acyclovir], the “Benefit of prior therapy, orally” value (herpes simplex virus [1]; Example 3: patient history, oral) was “with benefit” and the “Benefit of prior therapy, topically” value (herpes simplex virus [1]; Example 3: patient history, topical) was “without benefit”.
In the case of `O=c1[nH]c(=O)n([C@H]2C[C@H](O)[C@@H](CO)O2)cc1I` [idoxuridine], the Pain duration (herpes simplex virus [3]; topical, reported in a study) is given as “reduced pain duration” and the “Time to loss of crust” value (herpes simplex virus [3]; topical, reported in a study) is given as “decreased time to loss of crust”.
In the case of `Nc1nc2c(ncn2CCC(CO)CO)c(=O)[nH]1` [penciclovir], the “Duration of lesions, pain, and viral shedding” value (herpes simplex virus [3]; cream applied early and late in course of HSV infection (Hamuy et al. 1998)) is listed as “decreased the duration of lesions, pain, and viral shedding”.
With ivermectin the “Effectiveness in treating herpes simplex” value (herpes simplex virus [1]; [4]) was “effective”, the “Effectiveness in treating herpes zoster” value (varicella zoster virus; [4]) was “effective” and the “Effect of combined systematic and topical treatments on severity of herpes zoster” value (varicella zoster virus; topical ivermectin composition with concurrent oral antiviral medication) was “synergistic effect in decreasing the severity”.
